In US8492397B2, “Aminopyridine derivatives having Aurora A selective inhibitory action” (Vertex Pharmaceuticals Incorporated, priority 2009, dated 2013):

Assays:
[1] = target: T1, Aurora A (Homo sapiens, UniProt O14965); test: Aurora A inhibitory action (33P-ATP Kemptide phosphorylation, filter assay); assay type: biochemical; settings: His-tagged Aurora A, 100 μM Kemptide, 20 μM ATP, 30° C., 20 minutes
T1 construct: histidine tag (N); made in house; host or cells: Escherichia coli BL21-CodonPlus(DE3)-RIL
T1 sequence (O14965 1-403): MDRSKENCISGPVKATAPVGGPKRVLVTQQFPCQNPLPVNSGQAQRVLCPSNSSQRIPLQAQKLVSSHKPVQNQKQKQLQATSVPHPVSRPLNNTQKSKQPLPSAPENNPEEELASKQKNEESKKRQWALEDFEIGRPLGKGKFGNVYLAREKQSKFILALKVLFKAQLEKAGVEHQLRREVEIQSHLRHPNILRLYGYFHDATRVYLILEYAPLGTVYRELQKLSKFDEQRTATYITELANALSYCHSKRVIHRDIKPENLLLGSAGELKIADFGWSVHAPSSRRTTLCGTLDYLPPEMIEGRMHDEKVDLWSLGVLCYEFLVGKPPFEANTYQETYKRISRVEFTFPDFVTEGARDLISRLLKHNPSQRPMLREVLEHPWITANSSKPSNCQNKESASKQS
Description: (§1) cDNA of Aurora A having histidine tag fused at the amino terminal was integrated into an expression vector, which was then highly expressed in Escherichia coli BL21-CodonPlus(DE3)-RIL cells. The Escherichia coli cells were recovered and solubilized, and then the histidine-tagged Aurora A protein was adsorbed onto a nickel chelate column and eluted from the column with imidazole. The active fraction was desalted with a desalting column to give a pure enzyme.
For measurement of the activity of Aurora A, the substrate used was Kemptide (Leu-Arg-Arg-Ala-Ser-Leu-Gly) (SEQ.ID.NO.: 1), a synthetic peptide purchased from Sigma-Aldrich, Inc. [Certificate of analysis (Upstate, Inc.)].
Reaction was conducted by a partial modification of a method by Upstate, Inc. [Kinase Profiler™ Assay Protocols]. The amount of the reaction liquid was 21.1 μL, and the composition of the reaction buffer (R2 buffer) was 50 mM Tris-hydrochloride buffer (pH 7.4)/15 mM magnesium acetate/0.2 μM ethylenediamine-N,N,N′,N′-tetraacetate (EDTA). To this, purified Aurora A, 100 μM of a substrate peptide, 20 μM of unlabeled adenosine triphosphate (ATP) and 0.5 μCi of [γ-^33P] labeled ATP (2,500 Ci/mmole or more) were added, and the mixture was reacted at 30° C. for 20 minutes. Then, 10 μL of 350 mM phosphate buffer was added to the reaction system to stop the reaction. The substrate peptide was adsorbed on a P81 paper filter 96-well plate and then washed with 130 mM phosphate buffer for several times. The radiation activity of the peptide was measured with a liquid scintillation counter. The [γ-^33P] labeled ATP was purchased from Amersham Biosciences Co., Ltd.
The compound to be tested was added to the reaction system such that a dilution series of the compound in dimethylsulfoxide was first prepared, and 1.1 μL of this solution was added. A control was provided by adding 1.1 μL of DMSO to the reaction system.

[2] = target: T2, Aurora B (Homo sapiens, UniProt Q96GD4); test: Aurora B inhibitory action (33P-ATP Kemptide phosphorylation, filter assay); assay type: biochemical; settings: His-tagged Aurora B, 100 μM Kemptide, 100 μM ATP, 30° C., 20 minutes
T2 construct: histidine tag (N); made in house; host or cells: Escherichia coli BL21-CodonPlus(DE3)-RIL
Description: as §1, with “of Aurora B having histidine” for “of Aurora A having histidine”, “column with imidazole, The active” for “column with imidazole. The active”
For measurement of the activity of Aurora B, the substrate used was Kemptide (Leu-Arg-Arg-Ala-Ser-Leu-Gly) (SEQ.ID.NO.: 1), a synthetic peptide purchased from Sigma-Aldrich, Inc, [Certificate of analysis (Upstate, Inc.)].
Reaction was conducted by a partial modification of the method of activity measurement for Aurora A. The amount of the reaction liquid was 21.1 μL, and the composition of the reaction buffer (R2 buffer) was 50 mM Tris-hydrochloride buffer (pH 7.4)/15 mM magnesium acetate/0.2 mM ethylenediamine-N,N,N′,N′-tetraacetate (EDTA). To this, purified Aurora B, 100 μM of a substrate peptide, 100 μM of unlabeled adenosine triphosphate (ATP) and 1 μCi of [γ-^33P] labeled ATP (2,500 Ci/mmole or more) were added, and the mixture was reacted at 30° C. for 20 minutes. Then, 10 μL of 350 mM phosphate buffer was added to the reaction system to stop the reaction. The substrate peptide was adsorbed on a P81 paper filter 96-well plate and then washed with 130 mM phosphate buffer for several times. The radiation activity of the peptide was measured with a liquid scintillation counter. The [γ-^33P] labeled ATP was purchased from Amersham Biosciences Co., Ltd.

T2 sequence (Q96GD4 whole entry): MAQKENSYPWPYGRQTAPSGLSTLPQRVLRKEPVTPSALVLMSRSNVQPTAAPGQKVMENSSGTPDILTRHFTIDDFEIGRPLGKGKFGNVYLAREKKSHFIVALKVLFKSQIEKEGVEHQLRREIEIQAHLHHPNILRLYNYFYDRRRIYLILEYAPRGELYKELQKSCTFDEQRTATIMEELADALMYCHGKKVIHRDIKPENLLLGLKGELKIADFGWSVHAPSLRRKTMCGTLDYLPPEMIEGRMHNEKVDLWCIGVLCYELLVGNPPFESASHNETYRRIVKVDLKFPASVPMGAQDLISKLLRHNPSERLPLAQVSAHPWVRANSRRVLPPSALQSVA

IC50 [1] [µM] | IC50 [2] [µM] | SMILES
0.022 | 3.8 | Cc1cc(Nc2cc[nH]n2)nc(N2CC[C@H](NC(=O)OC(C)(C)C(F)(F)F)C2)n1 [Example 4, 1,1,1-trifluoro-2-methylpropan-2-yl{(3S)-1-[4-methyl-6-(1H-pyrazol-3-ylamino)pyrimidin-2-yl]pyrrolidin-3-yl}carbamate]
0.075 | 5.8 | Cc1cc(Nc2cc[nH]n2)nc(N2CC(NC(=O)OC(C)(C)C)[C@H](C)C2)n1 (stereo in doubt) [Example 9, tert-butyl {(3R,4R)-4-methyl-1-[4-methyl-6-(1H-pyrazol-3-ylamino)pyrimidin-2-yl]pyrrolidin-3-yl}carbamate]
0.037 | > 10 | CO[C@@H]1CN(c2nc(C)cc(Nc3cc[nH]n3)n2)C[C@H]1NC(=O)O[C@@H](C)C(F)(F)F [Example 8, (2S)-1,1,1-trifluoropropan-2-yl{(3R,4R)-4-methoxyl-1-[4-methyl-6-(1H-pyrazol-3-ylamino)pyrimidin-2-yl]pyrrolidin-3-yl}carbamate]
0.0062 | 0.31 | Cc1cc(Nc2cc[nH]n2)nc(N2CC(NC(=O)O[C@@H](C)C(F)(F)F)[C@H](C)C2)n1 (stereo in doubt) [Example 7, (2S)-1,1,1-trifluoropropan-2-yl{(3R,4R)-4-methyl-1-[4-methyl-6-(1H-pyrazol-3-ylamino)pyrimidin-2-yl]pyrrolidin-3-yl}carbamate]
0.0064 | 0.19 | Cc1cc(Nc2cc(C)[nH]n2)nc(N2CC[C@H](NC(=O)O[C@@H](C)C(F)(F)F)C2)n1 [Example 3, (2S)-1,1,1-trifluoropropan-2-yl {(3S)-1-[4-methyl-6-(5-methyl-1H-pyrazol-3-ylamino)pyrimidin-2-yl]pyrrolidin-3-yl}carbamate]
0.033 | 2.2 | Cc1cc(Nc2cc[nH]n2)nc(N2C[C@@H](O)[C@H](NC(=O)O[C@@H](C)C(F)(F)F)C2)n1 [Example 2, (2S)-1,1,1-trifluoropropan-2-yl{(3R,4R)-4-hydroxy-1-[4-methyl-6-(1H-pyrazol-3-ylamino)pyrimidin-2-yl]pyrrolidin-3-yl}carbamate]
0.0036 | 0.21 | Cc1cc(Nc2cc[nH]n2)nc(N2CC[C@H](NC(=O)O[C@@H](C)C(F)(F)F)C2)n1 [Example 1, (2S)-1,1,1-trifluoropropan-2-yl{(3S)-1-[4-methyl-6-(1H-pyrazol-3-ylamino)pyrimidin-2-yl]pyrrolidin-3-yl}carbamate]
0.028 | 1.8 | Cc1cc(Nc2cc(C)[nH]n2)nc(N2CC[C@H](NC(=O)OC(C)(C)C)C2)n1 [Example 6, tert-butyl {(3S)-1-[4-methyl-6-(5-methyl-1H-pyrazol-3-ylamino)pyrimidin-2-yl]pyrrolidin-3-yl}carbamate]
